Patent US4017611A, “Control of insects with 3-hydroxymethacrylic acid methyl ester dimethylthionophosphate” (priority 1970, dated 1977)
Where two headings read alike, the source gives them in different places.

Columns and labels:
adult houseflies = assay: Gas action against adult houseflies; assay type: in vivo, Musca domestica (housefly); conditions: 10 mg active substance, 2 liter glass cylinder
Description: Using a pipette 10 mg of active substance were placed on a watch glass which was then covered with a wire mesh and placed in a 2 liter glass cylinder. Immediately thereafter 30 houseflies were introduced into the container which was then sealed.
A comparative test between compound 1 and PHOSDRIN (Registered Trade Mark) carried out according to this method gave the following mortality periods in minutes for 10%, 50% and 100% kill of the test animals.

Rhizopertha dominica = assay: Durability (disinfection) test on wheat, lesser grain borer; assay type: in vivo; conditions: Rhyzopertha dominica, 168 h, read-out: % animals dead after one week exposure
Text: (§1) Wheat was shaken up with 5% dusting agent and then mixed again repeatedly with untreated wheat at half the poison concentration. In this way, a dilution series with concentrations of 50 - 25 - 12 - 6 - 3 - 1.5 ppm was obtained.
(§2) Since the test is repeated once per month, the desired information is obtained concerning the residual effect. In the test, the important pests in storage protection were chosen, viz, the grain weevil (Sitophilus granarius) - lesser grain borer (Rhizopertha dominica) and the larvae of the Khapra beetle (Trogoderma granarium), which are very resistant to insecticides. 20 test insects were tested per concentration and the results are expressed in the following table.

insects = assay: Insecticidal action and effective life (general statement); assay type: in vivo
Sitophilus granarius = assay: Durability (disinfection) test on wheat, grain weevil; assay type: in vivo; conditions: 168 h, read-out: % animals dead after one week exposure
Text: as §1, §2

[1] = Acute oral toxicity (warm blooded toxicity) in rats; conditions: rat, in vivo, po
Sit. Granarius = assay: Diffusion action in wheat (gas phase between wheat grains); assay type: in vivo; conditions: Sitophilus granarius, 168 h, 50 ppm treated wheat layer, read-out: Mortality in % after 7 days exposure time
Text: A plexiglass box was divided by means of wire grids into ten vertical layers each 1 cm thick. Each compartment was filled with wheat grains. The first compartment contained wheat grains which had been treated with 50 ppm active agent (5% dusting agent). The remainder of the compartment contained untreated wheat. All the compartments were then supplied with grain weevils. The mortality was noted after 7 days exposure time and the results are expressed in the following table. Diffusion of active substance in gas phase between the wheat grains

Trogoderma granarium (L) = assay: Durability (disinfection) test on wheat, larvae of the Khapra beetle; assay type: in vivo; conditions: 168 h, read-out: % animals dead after one week exposure
Text: as §1, §2

[2] = Vapour pressure and diffusion (general statement)
[3] = compared to compounds of French Pat. No. 1530955, PHOSDRIN or DDVP

COC(=O)C(C)=COP(=S)(OC)OC [Compound I, 3-hydroxymethacrylic acid methyl ester dimethylthionophosphate]
Mortality time for 10% of the houseflies (adult houseflies; 10% kill): 5 min
Mortality time for 50% of the houseflies (adult houseflies; 50% kill): 6 min
Mortality time for 100% of the houseflies (adult houseflies; 100% kill): 25 min
mortality at 1.5 ppm (Rhizopertha dominica; wheat fresh): 20%
mortality at 1.5 ppm (Rhizopertha dominica; wheat stored 1 month): 0%
mortality at 1.5 ppm (Rhizopertha dominica; wheat stored 2 months): 15%
mortality at 1.5 ppm (Rhizopertha dominica; wheat stored 3 months): 0%
mortality at 3 ppm (Rhizopertha dominica; wheat fresh): 90%
mortality at 3 ppm (Rhizopertha dominica; wheat stored 1 month): 5%
mortality at 3 ppm (Rhizopertha dominica; wheat stored 2 months): 10%
mortality at 3 ppm (Rhizopertha dominica; wheat stored 3 months): 15%
mortality at 6 ppm (Rhizopertha dominica; wheat fresh): 100%
mortality at 6 ppm (Rhizopertha dominica; wheat stored 1 month): 60%
mortality at 6 ppm (Rhizopertha dominica; wheat stored 2 months): 40%
mortality at 6 ppm (Rhizopertha dominica; wheat stored 3 months): 15%
mortality at 12 ppm (Rhizopertha dominica; wheat fresh): 100%
mortality at 12 ppm (Rhizopertha dominica; wheat stored 1 month): 85%
mortality at 12 ppm (Rhizopertha dominica; wheat stored 2 months): 70%
mortality at 12 ppm (Rhizopertha dominica; wheat stored 3 months): 35%
mortality at 25 ppm (Rhizopertha dominica; wheat fresh): 100%
mortality at 25 ppm (Rhizopertha dominica; wheat stored 1 month): 100%
mortality at 25 ppm (Rhizopertha dominica; wheat stored 2 months): 80%
mortality at 25 ppm (Rhizopertha dominica; wheat stored 3 months): 75%
mortality at 50 ppm (Rhizopertha dominica; wheat fresh): 100%
mortality at 50 ppm (Rhizopertha dominica; wheat stored 1 month): 100%
mortality at 50 ppm (Rhizopertha dominica; wheat stored 2 months): 100%
mortality at 50 ppm (Rhizopertha dominica; wheat stored 3 months): 100%
insecticidal action (insects; [3]): stronger insecticidal action
effective life (insects; in vivo): more than 4 months
mortality at 1.5 ppm (Sitophilus granarius; wheat fresh): 100%
mortality at 1.5 ppm (Sitophilus granarius; wheat stored 1 month): 90%
mortality at 1.5 ppm (Sitophilus granarius; wheat stored 2 months): 100%
mortality at 1.5 ppm (Sitophilus granarius; wheat stored 3 months): 70%
mortality at 3 ppm (Sitophilus granarius; wheat fresh): 100%
mortality at 3 ppm (Sitophilus granarius; wheat stored 1 month): 100%
mortality at 3 ppm (Sitophilus granarius; wheat stored 2 months): 100%
mortality at 3 ppm (Sitophilus granarius; wheat stored 3 months): 95%
mortality at 6 ppm (Sitophilus granarius; wheat fresh): 100%
mortality at 6 ppm (Sitophilus granarius; wheat stored 1 month): 100%
mortality at 6 ppm (Sitophilus granarius; wheat stored 2 months): 100%
mortality at 6 ppm (Sitophilus granarius; wheat stored 3 months): 100%
mortality at 12 ppm (Sitophilus granarius; wheat fresh): 100%
mortality at 12 ppm (Sitophilus granarius; wheat stored 1 month): 100%
mortality at 12 ppm (Sitophilus granarius; wheat stored 2 months): 100%
mortality at 12 ppm (Sitophilus granarius; wheat stored 3 months): 100%
mortality at 25 ppm (Sitophilus granarius; wheat fresh): 100%
mortality at 25 ppm (Sitophilus granarius; wheat stored 1 month): 100%
mortality at 25 ppm (Sitophilus granarius; wheat stored 2 months): 100%
mortality at 25 ppm (Sitophilus granarius; wheat stored 3 months): 100%
mortality at 50 ppm (Sitophilus granarius; wheat fresh): 100%
mortality at 50 ppm (Sitophilus granarius; wheat stored 1 month): 100%
mortality at 50 ppm (Sitophilus granarius; wheat stored 2 months): 100%
mortality at 50 ppm (Sitophilus granarius; wheat stored 3 months): 100%
LD50 [1]: 500 mg/kg
mortality at 50 ppm (Sit. Granarius; distance 1 cm): 100%
mortality at 50 ppm (Sit. Granarius; distance 2 cm): 100%
mortality at 50 ppm (Sit. Granarius; distance 3 cm): 100%
mortality at 50 ppm (Sit. Granarius; distance 4 cm): 100%
mortality at 50 ppm (Sit. Granarius; distance 5 cm): 90%
mortality at 50 ppm (Sit. Granarius; distance 6 cm): 15%
mortality at 1.5 ppm (Trogoderma granarium (L); wheat fresh): 90%
mortality at 1.5 ppm (Trogoderma granarium (L); wheat stored 1 month): 0%
mortality at 1.5 ppm (Trogoderma granarium (L); wheat stored 2 months): 0%
mortality at 1.5 ppm (Trogoderma granarium (L); wheat stored 3 months): 0%
mortality at 3 ppm (Trogoderma granarium (L); wheat fresh): 95%
mortality at 3 ppm (Trogoderma granarium (L); wheat stored 1 month): 10%
mortality at 3 ppm (Trogoderma granarium (L); wheat stored 2 months): 0%
mortality at 3 ppm (Trogoderma granarium (L); wheat stored 3 months): 0%
mortality at 6 ppm (Trogoderma granarium (L); wheat fresh): 100%
mortality at 6 ppm (Trogoderma granarium (L); wheat stored 1 month): 85%
mortality at 6 ppm (Trogoderma granarium (L); wheat stored 2 months): 30%
mortality at 6 ppm (Trogoderma granarium (L); wheat stored 3 months): 10%
mortality at 12 ppm (Trogoderma granarium (L); wheat fresh): 100%
mortality at 12 ppm (Trogoderma granarium (L); wheat stored 1 month): 95%
mortality at 12 ppm (Trogoderma granarium (L); wheat stored 2 months): 85%
mortality at 12 ppm (Trogoderma granarium (L); wheat stored 3 months): 55%
mortality at 25 ppm (Trogoderma granarium (L); wheat fresh): 100%
mortality at 25 ppm (Trogoderma granarium (L); wheat stored 1 month): 100%
mortality at 25 ppm (Trogoderma granarium (L); wheat stored 2 months): 100%
mortality at 25 ppm (Trogoderma granarium (L); wheat stored 3 months): 100%
mortality at 50 ppm (Trogoderma granarium (L); wheat fresh): 100%
mortality at 50 ppm (Trogoderma granarium (L); wheat stored 1 month): 100%
mortality at 50 ppm (Trogoderma granarium (L); wheat stored 2 months): 100%
mortality at 50 ppm (Trogoderma granarium (L); wheat stored 3 months): 100%
diffusion into the gaps between stored foodstuffs [2]: diffuses easily
vapour pressure [2, 3]: increased vapour pressure

COP(=O)(OC)OC=C(Cl)Cl [DDVP, dimethyldichlorvinylphosphate, reference compound]
mortality at 1.5 ppm (Rhizopertha dominica; wheat fresh): 95%
mortality at 1.5 ppm (Rhizopertha dominica; wheat stored 1 month): 0%
mortality at 1.5 ppm (Rhizopertha dominica; wheat stored 2 months): 5%
mortality at 1.5 ppm (Rhizopertha dominica; wheat stored 3 months): 0%
mortality at 3 ppm (Rhizopertha dominica; wheat fresh): 100%
mortality at 3 ppm (Rhizopertha dominica; wheat stored 1 month): 5%
mortality at 3 ppm (Rhizopertha dominica; wheat stored 2 months): 0%
mortality at 3 ppm (Rhizopertha dominica; wheat stored 3 months): 0%
mortality at 6 ppm (Rhizopertha dominica; wheat fresh): 100%
mortality at 6 ppm (Rhizopertha dominica; wheat stored 1 month): 10%
mortality at 6 ppm (Rhizopertha dominica; wheat stored 2 months): 5%
mortality at 6 ppm (Rhizopertha dominica; wheat stored 3 months): 0%
mortality at 12 ppm (Rhizopertha dominica; wheat fresh): 100%
mortality at 12 ppm (Rhizopertha dominica; wheat stored 1 month): 15%
mortality at 12 ppm (Rhizopertha dominica; wheat stored 2 months): 20%
mortality at 12 ppm (Rhizopertha dominica; wheat stored 3 months): 0%
mortality at 25 ppm (Rhizopertha dominica; wheat fresh): 100%
mortality at 25 ppm (Rhizopertha dominica; wheat stored 1 month): 65%
mortality at 25 ppm (Rhizopertha dominica; wheat stored 2 months): 40%
mortality at 25 ppm (Rhizopertha dominica; wheat stored 3 months): 15%
mortality at 50 ppm (Rhizopertha dominica; wheat fresh): 100%
mortality at 50 ppm (Rhizopertha dominica; wheat stored 1 month): 100%
mortality at 50 ppm (Rhizopertha dominica; wheat stored 2 months): 95%
mortality at 50 ppm (Rhizopertha dominica; wheat stored 3 months): 80%
mortality at 1.5 ppm (Sitophilus granarius; wheat fresh): 100%
mortality at 1.5 ppm (Sitophilus granarius; wheat stored 1 month): 0%
mortality at 1.5 ppm (Sitophilus granarius; wheat stored 2 months): 0%
mortality at 1.5 ppm (Sitophilus granarius; wheat stored 3 months): 0%
mortality at 3 ppm (Sitophilus granarius; wheat fresh): 100%
mortality at 3 ppm (Sitophilus granarius; wheat stored 1 month): 5%
mortality at 3 ppm (Sitophilus granarius; wheat stored 2 months): 0%
mortality at 3 ppm (Sitophilus granarius; wheat stored 3 months): 0%
mortality at 6 ppm (Sitophilus granarius; wheat fresh): 100%
mortality at 6 ppm (Sitophilus granarius; wheat stored 1 month): 25%
mortality at 6 ppm (Sitophilus granarius; wheat stored 2 months): 0%
mortality at 6 ppm (Sitophilus granarius; wheat stored 3 months): 0%
mortality at 12 ppm (Sitophilus granarius; wheat fresh): 100%
mortality at 12 ppm (Sitophilus granarius; wheat stored 1 month): 100%
mortality at 12 ppm (Sitophilus granarius; wheat stored 2 months): 55%
mortality at 12 ppm (Sitophilus granarius; wheat stored 3 months): 0%
mortality at 25 ppm (Sitophilus granarius; wheat fresh): 100%
mortality at 25 ppm (Sitophilus granarius; wheat stored 1 month): 100%
mortality at 25 ppm (Sitophilus granarius; wheat stored 2 months): 100%
mortality at 25 ppm (Sitophilus granarius; wheat stored 3 months): 50%
mortality at 50 ppm (Sitophilus granarius; wheat fresh): 100%
mortality at 50 ppm (Sitophilus granarius; wheat stored 1 month): 100%
mortality at 50 ppm (Sitophilus granarius; wheat stored 2 months): 100%
mortality at 50 ppm (Sitophilus granarius; wheat stored 3 months): 99%
LD50 [1]: 50 mg/kg
mortality at 50 ppm (Sit. Granarius; distance 1 cm): 100%
mortality at 50 ppm (Sit. Granarius; distance 2 cm): 100%
mortality at 50 ppm (Sit. Granarius; distance 3 cm): 80%
mortality at 50 ppm (Sit. Granarius; distance 4 cm): 0%
mortality at 50 ppm (Sit. Granarius; distance 5 cm): 0%
mortality at 50 ppm (Sit. Granarius; distance 6 cm): 0%
mortality at 1.5 ppm (Trogoderma granarium (L); wheat fresh): 85%
mortality at 1.5 ppm (Trogoderma granarium (L); wheat stored 1 month): 0%
mortality at 1.5 ppm (Trogoderma granarium (L); wheat stored 2 months): 0%
mortality at 1.5 ppm (Trogoderma granarium (L); wheat stored 3 months): 0%
mortality at 3 ppm (Trogoderma granarium (L); wheat fresh): 100%
mortality at 3 ppm (Trogoderma granarium (L); wheat stored 1 month): 0%
mortality at 3 ppm (Trogoderma granarium (L); wheat stored 2 months): 0%
mortality at 3 ppm (Trogoderma granarium (L); wheat stored 3 months): 0%
mortality at 6 ppm (Trogoderma granarium (L); wheat fresh): 100%
mortality at 6 ppm (Trogoderma granarium (L); wheat stored 1 month): 0%
mortality at 6 ppm (Trogoderma granarium (L); wheat stored 2 months): 0%
mortality at 6 ppm (Trogoderma granarium (L); wheat stored 3 months): 0%
mortality at 12 ppm (Trogoderma granarium (L); wheat fresh): 100%
mortality at 12 ppm (Trogoderma granarium (L); wheat stored 1 month): 5%
mortality at 12 ppm (Trogoderma granarium (L); wheat stored 2 months): 0%
mortality at 12 ppm (Trogoderma granarium (L); wheat stored 3 months): 0%
mortality at 25 ppm (Trogoderma granarium (L); wheat fresh): 100%
mortality at 25 ppm (Trogoderma granarium (L); wheat stored 1 month): 75%
mortality at 25 ppm (Trogoderma granarium (L); wheat stored 2 months): 10%
mortality at 25 ppm (Trogoderma granarium (L); wheat stored 3 months): 0%
mortality at 50 ppm (Trogoderma granarium (L); wheat fresh): 100%
mortality at 50 ppm (Trogoderma granarium (L); wheat stored 1 month): 100%
mortality at 50 ppm (Trogoderma granarium (L); wheat stored 2 months): 45%
mortality at 50 ppm (Trogoderma granarium (L); wheat stored 3 months): 0%
